Consider two compounds from US11103581B2, “Methods and compositions for self-regulated release of active pharmaceutical ingredient” (Acura Pharmaceuticals, Inc., priority 2015, dated 2021).

The structures appear in SMILES notation.

Series [1] in a line: pH monitoring of calcium carbonate antacid tablets in HCl dissolution vessel. It is filed as physicochemical. The settings on record: five tablets, 25 mEq of HCl. How it is done:
Two dissolution vessels were prepared: one vessel contained 25 mEq of HCl and a single commercially available calcium carbonate antacid tablet (Tums®), and the other vessel contained 25 mEq of HCl and five calcium carbonate antacid tablets. […] Calcium carbonate has shown a capability as a pH modifier and pH dependent solubility.

For series [2] the following is noted: acid media pH 1. How it is done:
Thus, sodium bicarbonate was added to a prototype formulation primarily to control rapid pH elevation and calcium carbonate for a more sustained control of elevated pH.

For `O=C([O-])[O-].[Ca+2]` [calcium carbonate], the “pH reached in 10 minutes” value in series [1] is 5. Regarding `O=C([O-])O.[Na+]` [sodium bicarbonate], the “time to raise acid media from pH 1 to pH 6” value in series [2] is recorded as “less than 2 minutes”.
